Results reported in patent publication US8609703B2, “Modulators of ATP-binding cassette transporters” (Vertex Pharmaceuticals Incorporated, priority 2005, dated 2013).

Target: T1, ΔF508-CFTR (Homo sapiens, UniProt P13569, DEL508-508)
T1 construct: expressed in transfected cells
Test: EC50 and relative efficacy as modulators of ΔF508-CFTR (membrane potential optical assay)
Format: cell-based
Conditions: for % Activity: relative efficacy
Excerpt: I) Membrane Potential Optical Methods for Assaying ΔF508-CFTR Modulation Properties of Compounds
The optical membrane potential assay utilized voltage-sensitive FRET sensors described by Gonzalez and Tsien (See., Gonzalez, J. E. and R. Y. Tsien (1995) “Voltage sensing by fluorescence resonance energy transfer in single cells” Biophys J 69(4): 1272-80, and Gonzalez, J. E. and R. Y. Tsien (1997) “Improved indicators of cell membrane potential that use fluorescence resonance energy transfer” Chem Biol 4(4): 269-77) in combination with instrumentation for measuring fluorescence changes such as the Voltage/Ion Probe Reader (VIPR) (See Gonzalez, J. E., K. Oades, et al. (1999) “Cell-based assays and instrumentation for screening ion-channel targets” Drug Discov Today 4(9): 431-439).
These voltage sensitive assays are based on the change in fluorescence resonant energy transfer (FRET) between the membrane-soluble, voltage-sensitive dye, DiSBAC2(3), and a fluorescent phospholipid, CC2-DMPE, which is attached to the outer leaflet of the plasma membrane and acts as a FRET donor. Changes in membrane potential (Vm) cause the negatively charged DiSBAC2(3) to redistribute across the plasma membrane and the amount of energy transfer from CC2-DMPE changes accordingly. The changes in fluorescence emission were monitored using VIPR which is an integrated liquid handler and fluorescent detector designed to conduct cell-based screens in 96- or 384-well microtiter plates.
To identify small molecules that correct the trafficking defect associated with ΔF508-CFTR; a single-addition HTS assay format was developed. The cells were incubated in serum-free medium for 16 hrs at 37° C. in the presence or absence (negative control) of test compound. As a positive control, cells plated in 384-well plates were incubated for 16 hrs at 27° C. to “temperature-correct” ΔF508-CFTR. The cells were subsequently rinsed 3× with Krebs Ringers solution and loaded with the voltage-sensitive dyes. To activate ΔF508-CFTR, 10 μM forskolin and the CFTR potentiator, genistein (20 μM), were added along with Cl^−-free medium to each well. The addition of Cl^−-free medium promoted Cl^− efflux in response to LF508-CFTR activation and the resulting membrane depolarization was optically monitored using the FRET-based voltage-sensor dyes.
To identify potentiators of ΔF508-CFTR, a double-addition HTS assay format was developed. During the first addition, a Cl^−-free medium with or without test compound was added to each well. After 22 sec, a second addition of Cl^−-free medium containing 2-10 μM forskolin was added to activate ΔF508-CFTR. The extracellular Cl^− concentration following both additions was 28 mM, which promoted Cl^− efflux in response to ΔF508-CFTR activation and the resulting membrane depolarization was optically monitored using the FRET-based voltage-sensor dyes.
NIH3T3 mouse fibroblasts stably expressing ΔF508-CFTR are used for optical measurements of membrane potential. The cells are maintained at 37° C. in 5% CO2 and 90% humidity in Dulbecco's modified Eagle's medium supplemented with 2 mM glutamine, 10% fetal bovine serum, 1×NEAA, (3-ME, 1× pen/strep, and 25 mM HEPES in 175 cm^2 culture flasks. For all optical assays, the cells were seeded at 30,000/well in 384-well matrigel-coated plates and cultured for 2 hrs at 37° C. before culturing at 27° C. for 24 hrs. for the potentiator assay. For the correction assays, the cells are cultured at 27° C. or 37° C. with and without compounds for 16-24 hoursB) Electrophysiological Assays for assaying ΔF508-CFTR modulation properties of compounds
Compounds of the invention are useful as modulators of ATP binding cassette transporters. Table 3 below illustrates the EC50 and relative efficacy of certain embodiments in Table 1.

T1 sequence (P13569 with tags, fused parts or gaps DEL508-508): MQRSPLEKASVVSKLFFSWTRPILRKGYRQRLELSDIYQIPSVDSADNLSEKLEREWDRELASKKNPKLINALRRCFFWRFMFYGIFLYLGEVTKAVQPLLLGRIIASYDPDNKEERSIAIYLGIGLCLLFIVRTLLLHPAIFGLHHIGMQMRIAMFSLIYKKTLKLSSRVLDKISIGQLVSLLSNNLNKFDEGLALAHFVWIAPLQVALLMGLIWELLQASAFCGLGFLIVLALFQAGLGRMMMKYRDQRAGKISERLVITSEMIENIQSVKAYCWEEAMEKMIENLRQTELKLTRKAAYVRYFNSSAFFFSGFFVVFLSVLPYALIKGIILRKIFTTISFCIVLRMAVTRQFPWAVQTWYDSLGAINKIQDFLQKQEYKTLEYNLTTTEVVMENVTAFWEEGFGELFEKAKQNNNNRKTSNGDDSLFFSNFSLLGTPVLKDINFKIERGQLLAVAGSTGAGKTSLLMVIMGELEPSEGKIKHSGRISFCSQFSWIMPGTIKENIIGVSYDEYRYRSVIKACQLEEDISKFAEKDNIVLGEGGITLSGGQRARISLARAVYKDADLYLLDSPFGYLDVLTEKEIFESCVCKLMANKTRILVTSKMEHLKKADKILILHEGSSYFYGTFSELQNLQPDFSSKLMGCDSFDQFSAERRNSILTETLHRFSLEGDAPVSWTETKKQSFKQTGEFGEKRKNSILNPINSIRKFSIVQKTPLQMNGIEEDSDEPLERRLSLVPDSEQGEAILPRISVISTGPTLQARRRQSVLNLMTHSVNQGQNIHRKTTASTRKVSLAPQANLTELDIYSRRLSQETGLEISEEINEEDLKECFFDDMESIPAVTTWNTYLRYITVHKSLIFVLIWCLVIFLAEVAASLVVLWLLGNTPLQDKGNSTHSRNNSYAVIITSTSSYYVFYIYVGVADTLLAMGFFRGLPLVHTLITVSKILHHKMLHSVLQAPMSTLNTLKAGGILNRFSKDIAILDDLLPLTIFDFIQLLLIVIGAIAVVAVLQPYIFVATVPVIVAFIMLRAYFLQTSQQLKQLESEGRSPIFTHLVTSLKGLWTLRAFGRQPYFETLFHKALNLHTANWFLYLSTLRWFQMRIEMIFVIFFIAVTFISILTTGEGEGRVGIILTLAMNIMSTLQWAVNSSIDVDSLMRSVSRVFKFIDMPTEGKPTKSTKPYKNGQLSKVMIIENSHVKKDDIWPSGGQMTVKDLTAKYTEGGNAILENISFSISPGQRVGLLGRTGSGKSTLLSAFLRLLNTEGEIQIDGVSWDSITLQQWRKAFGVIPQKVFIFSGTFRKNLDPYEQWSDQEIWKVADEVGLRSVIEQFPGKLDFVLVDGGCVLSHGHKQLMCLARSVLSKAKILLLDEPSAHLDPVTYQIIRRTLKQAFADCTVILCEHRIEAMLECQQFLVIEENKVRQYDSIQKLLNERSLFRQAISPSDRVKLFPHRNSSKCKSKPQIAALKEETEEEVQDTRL

Row | EC50 [µM] | % Activity | SMILES
1 | < 1 | + (“+” means <25%) | O=C(Nc1ccc(F)cc1)C(=O)c1c[nH]c2ccc(Br)cc12 [Cmpd 1]
2 | 1 to 5 | + (“+” means <25%) | O=C(Nc1ccc(N2CCN(C(c3ccccc3)c3ccccc3)CC2)cc1)C(=O)c1c[nH]c2ccccc12 [Cmpd 2]
3 | < 1 | ++ (“++” means between 25% to 100%) | CCc1ccccc1NC(=O)C(=O)c1c[nH]c2ccccc12 [Cmpd 3, N-(2-Ethyl-phenyl)-2-(1H-indol-3-yl)-2-oxo-acetamide]
4 | < 1 | ++ (“++” means between 25% to 100%) | O=C(Nc1ccc2cc[nH]c2c1)C(=O)c1c[nH]c2ccccc12 [Cmpd 4]
5 | < 1 | ++ (“++” means between 25% to 100%) | CCCc1ccccc1NC(=O)C(=O)c1c[nH]c2ccccc12 [Cmpd 5]
6 | < 1 | ++ (“++” means between 25% to 100%) | CC(C)c1ccccc1NC(=O)C(=O)c1c[nH]c2ccccc12 [Cmpd 6]
7 | < 1 | ++ (“++” means between 25% to 100%) | CC(C)(C)c1ccc(NC(=O)C(=O)c2c[nH]c3ccccc23)cc1 [Cmpd 7]
8 | < 1 | ++ (“++” means between 25% to 100%) | O=C(Nc1ccccc1-c1ccccc1)C(=O)c1c[nH]c2ccccc12 [Cmpd 8]
9 | 1 to 5 | ++ (“++” means between 25% to 100%) | O=C(Nc1ccccc1)C(=O)c1c[nH]c2ccccc12 [Cmpd 9]
10 | < 1 | ++ (“++” means between 25% to 100%) | O=C(Nc1cccc(C(F)(F)F)n1)C(=O)c1c[nH]c2ccccc12 [Cmpd 10]
11 | < 1 | ++ (“++” means between 25% to 100%) | Cc1ccccc1Oc1ccccc1NC(=O)C(=O)c1c[nH]c2ccccc12 [Cmpd 11]
12 | < 1 | ++ (“++” means between 25% to 100%) | C=C(C)c1ccccc1NC(=O)C(=O)c1c[nH]c2ccccc12 [Cmpd 12]
13 | < 1 | ++ (“++” means between 25% to 100%) | CCCCc1ccccc1NC(=O)C(=O)c1c[nH]c2ccccc12 [Cmpd 13]
14 | < 1 | ++ (“++” means between 25% to 100%) | O=C(Nc1ccccc1Oc1ccc(Cl)cc1Cl)C(=O)c1c[nH]c2ccccc12 [Cmpd 14]
15 | < 1 | ++ (“++” means between 25% to 100%) | O=C(Nc1ccccc1CN1CCCCC1)C(=O)c1c[nH]c2ccccc12 [Cmpd 15]
16 | > 5 | ++ (“++” means between 25% to 100%) | Cn1cc(C(=O)C(=O)Nc2ccccc2)c2ccccc21 [Cmpd 16]
17 | > 5 | + (“+” means <25%) | Cn1cc(C(=O)C(=O)Nc2ccccc2-c2ccccc2)c2ccccc21 [Cmpd 17]
18 | 1 to 5 | ++ (“++” means between 25% to 100%) | O=C(Nc1ccccc1CN1CCCC1)C(=O)c1c[nH]c2ccccc12 [Cmpd 18]
19 | 1 to 5 | ++ (“++” means between 25% to 100%) | Nc1cc(NC(=O)C(=O)c2c[nH]c3ccccc23)cc(C(F)(F)F)c1 [Cmpd 19]
20 | < 1 | ++ (“++” means between 25% to 100%) | CN1Cc2c(NC(=O)C(=O)c3c[nH]c4ccccc34)cccc2C(c2ccccc2)C1 (stereo not shown) [Cmpd 20]
21 | 1 to 5 | ++ (“++” means between 25% to 100%) | Cc1ccc(C)n1-c1ccccc1NC(=O)C(=O)c1c[nH]c2ccccc12 [Cmpd 21]
22 | 1 to 5 | ++ (“++” means between 25% to 100%) | O=C(Nc1ccccc1OC(F)F)C(=O)c1c[nH]c2ccccc12 [Cmpd 22]
23 | < 1 | ++ (“++” means between 25% to 100%) | O=C(Nc1ccccc1F)C(=O)c1c[nH]c2ccccc12 [Cmpd 23]
24 | < 1 | ++ (“++” means between 25% to 100%) | CC(C)(C)c1cc(C(C)(C)C)c(NC(=O)C(=O)c2c[nH]c3ccccc23)cc1O [Cmpd 24]
25 | < 1 | ++ (“++” means between 25% to 100%) | CC(C)(C)c1cc2cc[nH]c2cc1NC(=O)C(=O)c1c[nH]c2ccccc12 [Cmpd 25]
26 | < 1 | ++ (“++” means between 25% to 100%) | CC(C)(C)c1ccccc1NC(=O)C(=O)c1c[nH]c2ccccc12 [Cmpd 26]
